Source: US9440962B2, “Benzisoxazoles” (Hoffmann-La Roche Inc., priority 2012, dated 2016)

Tests used:
[1] = system: human embryonic stem cell derived neural stem cells (NSCs); test: Neural stem cell proliferation assay (neurogenesis assay, ATP levels by CellTiterGlo); assay type: cell-based; details: 96 h, compound concentration at which 150% activity of control (100%) is reached, ATP levels after 4 days incubation, dose response 8 μM to 8 nM
Procedure: Neural Stem Cell Proliferation Assay
Neurogenic properties of small molecules are determined based on the proliferation of human embryonic stem cell derived neural stem cells (NSCs) which were derived via a dual smad inhibition as previously described (Chambers, S. M., et al., Highly efficient neural conversion of human ES and iPS cells by dual inhibition of SMAD signaling, Nature biotechnology, 2009. 27(3): p. 275-80.)
Compounds respond is measured by the increase in cells based on ATP levels (Promega:CellTiterGlo®) after an incubation period of 4 days.
NSCs are thawed and expanded over 3 passages. On the 14th day, NSCs are seeded in Polyornithin/Laminin coated 384 well plates at a cell density of 21′000 cells/cm^2 in a media volume of 38 μl.
4 hours after cell seeding, compound solutions are added at a volume of 2 μl. Stock solutions of the compounds (water, 5% DMSO) are diluted to obtain a dose response (11 points, dilution factor is 2), ranging from 8 μM to 8 nM. Controls are run to consistently determine the neurogenic properties of the cells: • Negative (neutral) control is cell culture Media (final DMSO concentration: 0.25%). Positive controls are: • 1. cell culture Media+100 ng/ml FGF2 (final DMSO concentration: 0.1%) • 2. cell culture Media+20 ng/ml EGF (final DMSO concentration: 0.1%) • 3. cell culture Media+100 ng/ml Wnt3a (final DMSO concentration: 0.1%)
After 4 days incubation at 37° C., 5% CO2, the amount of ATP per well is quantified. The ATP concentration is proportional to the cell number. ATP is quantified by using the Promega CellTiterGlo® kit. The CellTiterGlo® reagents contain a cell lysis buffer, a thermo stable luciferase (UltraGlo™ recombinant luciferase), magnesium and luciferin. Luciferin reacts with ATP producing oxyluciferin, AMP and light. The luminescence signal is proportional to the ATP content.
The value of negative (neutral) control is determined for each assay plate by taking the average of 16 negative control wells. The neurogenic compound response is calculated for each compound as (compound/Negative Control)* 100.
The values of EC150 from the dose response curve are determined for each test compound. The EC150 is the compound concentration at which 150% activity of control (100%) is reached.

| Structure (SMILES) | EC (150% of control) [1] [µM] | melting point [°C] |
| --- | --- | --- |
| Fc1ccc(-n2nccc2-c2ccc3noc(-c4ccc(Cl)cc4)c3c2)c(F)c1 [Example 32, 3-(4-Chloro-phenyl)-5-[2-(2,4-difluoro-phenyl)-2H-pyrazol-3-yl]-benzo[c]isoxazole] | 0.073 | 155 |
| COc1ccc(-c2onc3ccc(-c4ccnn4-c4ccc(F)cc4F)cc23)cc1 [Example 33, 5-[2-(2,4-Difluoro-phenyl)-2H-pyrazol-3-yl]-3-(4-methoxy-phenyl)-benzo[c]isoxazole] | 0.068 | 165 |
| c1ccc(-c2onc3ccc(-c4ccnn4-c4ccccc4)cc23)cc1 [Example 34, 3-Phenyl-5-(2-phenyl-2H-pyrazol-3-yl)-benzo[c]isoxazole] | 0.13 | 163 |
| Fc1ccc(-c2onc3ccc(-c4ccnn4-c4ccccn4)cc23)cc1 [Example 35, 3-(4-Fluoro-phenyl)-5-(2-pyridin-2-yl-2H-pyrazol-3-yl)-benzo[c]isoxazole] | 0.04 | 175 |
| COc1ccc(-c2onc3ccc(-c4ccnn4-c4ccccc4F)cc23)cc1F [Example 36, 3-(3-Fluoro-4-methoxy-phenyl)-5-[2-(2-fluoro-phenyl)-2H-pyrazol-3-yl]-benzo[c]isoxazole] | 0.16 | 168 |
| COc1ccc(-c2onc3ccc(-c4ccnn4-c4ccc(F)cc4)cc23)cc1F [Example 37, 3-(3-Fluoro-4-methoxy-phenyl)-5-[2-(4-fluoro-phenyl)-2H-pyrazol-3-yl]-benzo[c]isoxazole] | 1.1 | 162 |
| Cc1ccc(-n2nccc2-c2ccc3noc(-c4ccc(F)c(F)c4)c3c2)cc1 [Example 38, 3-(3,4-Difluoro-phenyl)-5-(2-p-tolyl-2H-pyrazol-3-yl)-benzo[c]isoxazole] | 0.48 | 198 |
| COc1ccc(-c2onc3ccc(-c4ccnn4-c4ccc(C)cc4)cc23)cc1F [Example 39, 3-(3-Fluoro-4-methoxy-phenyl)-5-(2-p-tolyl-2H-pyrazol-3-yl)-benzo[c]isoxazole] | 0.25 | 197 |
| COc1ccc(-c2onc3ccc(-c4ccnn4-c4ccc(F)cc4F)cc23)cc1F [Example 40, 5-[2-(2,4-Difluoro-phenyl)-2H-pyrazol-3-yl]-3-(3-fluoro-4-methoxy-phenyl)-benzo[c]isoxazole] | 0.23 | 183 |
| Fc1ccc(-c2onc3ccc(-c4ccnn4-c4ccccc4Cl)cc23)cc1 [Example 41, 5-[2-(2-Chloro-phenyl)-2H-pyrazol-3-yl]-3-(4-fluoro-phenyl)-benzo[c]isoxazole] | 0.22 | 161 |
| Clc1ccc(-c2onc3ccc(-c4ccnn4-c4ccccc4Cl)cc23)cc1 [Example 42, 3-(4-Chloro-phenyl)-5-[2-(2-chloro-phenyl)-2H-pyrazol-3-yl]-benzo[c]isoxazole] | 0.3 | 172 |
| Cc1ccc(-c2onc3ccc(-c4ccnn4-c4ccccc4Cl)cc23)cc1 [Example 43, 5-[2-(2-Chloro-phenyl)-2H-pyrazol-3-yl]-3-p-tolyl-benzo[c]isoxazole] | 0.15 | 176 |
| Fc1ccc(-n2nccc2-c2ccc3noc(-c4cccs4)c3c2)cc1 [Example 44, 5-[2-(4-Fluoro-phenyl)-2H-pyrazol-3-yl]-3-thiophen-2-yl-benzo[c]isoxazole] | 0.17 | 154 |
